The source of these data is patent publication US20250197388A1, “COMPOUNDS, PHARMACEUTICAL COMPOSITIONS AND METHODS FOR TREATING INFLAMMATORY BOWEL DISEASE” (FLAGSHIP PIONEERING INNOVATIONS VI, LLC, priority 2022, published 2025).

One data set deals with T1, Dectin-1b (Homo sapiens, UniProt Q9BXN2).
T1 construct: host or cells: HEK-Blue Dectin-1b reporter cells (HEK293-derived)
T1 sequence (Q9BXN2 1-201 isoform Q9BXN2-2): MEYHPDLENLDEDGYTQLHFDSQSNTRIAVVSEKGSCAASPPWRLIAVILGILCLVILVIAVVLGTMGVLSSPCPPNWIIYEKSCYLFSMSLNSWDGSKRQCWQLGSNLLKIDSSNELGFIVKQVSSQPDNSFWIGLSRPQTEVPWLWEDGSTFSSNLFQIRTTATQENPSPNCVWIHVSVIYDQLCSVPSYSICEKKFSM
The data set is described as follows: Dectin-1 assay, HEK-Blue Dectin-1b SEAP reporter cells stimulated with beta-glucan peptide (BGP). In kind it is cell-based. As to conditions: HEK-Blue Dectin-1b cells; compounds at 1, 10 or 30 μM for 6 hours, then BGP 30 μg/mL 16-18 hours; SEAP adjusted by cell viability. How it is done:
Compounds described herein are added to mammalian cells for bioactivity assessment. The HEK-Blue Dectin-1b cells line (InVivoGen) releases a reporter protein (secreted embryonic alkaline phosphatase, SEAP) to the culture supernatant in response to Dectin-1 activation. HEK-Blue reporter cells were grown in DMEM culture media with 10% decomplemented fetal calf serum (InvivoGen, 1% Pen/Strep antibiotic (InvivoGen), 0.2% Normocin antibiotic (InvivoGen). On the day prior to the assay, cells were seeded in a 96 flat-bottom well plate at 50,000 cells/well and further incubated for 20 hours. On the day of the assay cells were incubated with 1 μM, 10 μM or 30 μM of the compounds described herein or with 1 μM of the SYKi IV Dectin-1b Inhibitor (Millipore) or with DMSO (vehicle control) for 6 hours, followed by the addition of beta-glucan peptide (BGP, a Dectin-1 ligand at 30 μg/mL) and incubation for 16-18 hours. After incubation was concluded, the cultures supernatants were collected and Dectin-1 related activity was assessed by measurement of the SEAP-reporter protein presence, using Quanti-Blue assay (Invivogen) and these values were adjusted by the Cell Viability levels that was assessed using the Cell-Titer-Glo2 Reagent (Promega).
Results represent cell number adjusted SEAP levels in a triplicate setting for each condition and cell numbers and viability corrections reflected less than 5% corrections. See, e.g., FIG. 1 for compound A-3.

In data set [1] the test system is Zymosan-induced production of IL-12p40 in monocyte-derived dendritic cells. The data set is described as follows: Monocyte derived DC (MoDC) assay, Zymosan-induced IL-12p40 (Luminex/ELISA). As to conditions: for inhibition of Zymosan-induced production of IL-12p40: MoDC from healthy human donors 1, 2 and 3, 15.5 nM to 1 μM (FIGS. 6A-6C); for concentration of maximal inhibition of Zymosan-induced IL-12p40: donors 1, 2 and 3, the highest concentration tested. Format: cell-based, human. An excerpt:
Monocyte derived DC (MoDC) were differentiated from healthy human donor derived CD14+ monocytes. Commercially available freshly prepared Leukopaks were obtained from healthy blood donor and kept refrigerated on ice before spin centrifuged and the pelleted cells are rinsed and resuspended with MACS buffer (Miltenyi Biotec). Next, CD14+ monocytes were purified using MultiMACS™ Cell24 Separator-Plus instrumentation and reagents according to the manufacturer (Miltenyi Biotec) instructions. The resulting purified CD14^+ cell fraction was washed, enumerated, and subsequently cryopreserved for later use. At the experiment first day cryopreserved CD14′ cells were thawed, rinsed with culture media, and then resuspended in culture media principally composed of RPMI (Invitrogen) supplemented with 10% v/v heat inactivated FBS. For generation of MoDC, these CD14^+ cells were enumerated and seeded into 75 cm^2 tissue culture flasks in 30 mL of culture media supplemented with GM-CSF (40-100 ng/mL) and IL-4 (25 ng/mL). Every other day, half of the culture media was replaced with fresh media (containing the same cytokine supplementation) and after 6-7 days of culture, fully differentiated and matured MoDC were obtained as confirmed by conventional Immuno-phenotype markers (levels of expression or absence of surface CD80, CD83, CD86, CD209, HLA-DR, CD14 & CD64) that were verified by flow-cytometry. Fully differentiated (mature) MoDCs, were seeded into 96 flat-well plates and incubated with a various concentration of the compound described herein, or with control solution (DMSO), or with the pharmacologic inhibitors Cyclosporin-A (CsA) and BAY 61-3606 (which is a known inhibitor of Syk kinase) for 6 hours. Next, the MoDC culture well were added with Dectin-1(CLEC7a1)-ligand (Zymosan at 5 μg/mL), or the Toll-like receptor agonist R848, and further incubated for 18-20 hours. After incubation concluded, culture supernatants were collected, and the levels of inflammatory cytokines and chemokines was measured in a triplicate setting for each condition by Luminex® multiplex assay (FIG. 2) or by ELISA (FIG. 3).
Background: In an ELISA, binding on a coated surface is turned into a signal by an enzyme label.

A short description of data set [2]: Compound interconversion monitored by 1H-NMR in neutral aqueous buffer. As to conditions: 37° C. in the neutral aqueous buffer. In kind it is physicochemical. How it is done:
This examples provide the kinetics of compounds A-2 and A-3. More specifically, A-6 is a mixture of compounds A-2 and A-3 and interconvert in solutions.
In this example, A-6 was combined with […] of Na3PO4, DCl, and D2O at a pH of 7-7.5. This solution was then monitored using 1H-NMR at 37° C.
Interconversion between compounds A-2 and A-3 was seen and monitored for 5 days. See, Table 1.

Regarding `CN1[C@@H](C(=O)O)CS[C@@H]1[C@@H]1CSC(c2ccccc2O)=N1` (single isomer, unassigned) [Compound A-2], the Activity at Dectin-1b is under 30 µM. Further, in data set [1], the “inhibition of Zymosan-induced production of IL-12p40” value is recorded as “inhibition” and the “concentration of maximal inhibition of Zymosan-induced IL-12p40” value came out at 1 µM. Besides, in data set [2], the “time to nearly reach interconversion equilibrium” value is reported as “about 3 hours”.
In the case of `CN1[C@@H](C(=O)O)CS[C@H]1[C@@H]1CSC(c2ccccc2O)=N1` (single isomer, unassigned) [Compound A-3], on Dectin-1b, the Activity was under 30 µM. In data set [1], the “inhibition of Zymosan-induced production of IL-12p40” value is “inhibition” and the “concentration of maximal inhibition of Zymosan-induced IL-12p40” value is 1 µM. Moreover, the “inhibition of zymosan-induced IL-12p40” value in data set [1] (primary human MoDC from healthy donors 5 and 6, 0.5 μM final concentration (FIGS. 11A, 11B)) is “does not achieve statistically significant inhibition”. Also, in data set [2], the “equilibrium ratio of interconversion” value was “about 1.5/1” and the “time to nearly reach interconversion equilibrium” value is listed as “about 7 hours”.
